Reference: PubChem BioAssay (NCI)
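How tested: cells in 96-well plates exposed to compound for 48 hours at five concentrations. TGI marks complete inhibition of growth.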

Tests used:
Experiment in all cases: growth of human tumour cells (NCI), 48 h
U251 CNS = test system: U251 CNS
LOX IMVI melanoma = test system: LOX IMVI melanoma
MALME-3M melanoma = test system: MALME-3M melanoma
XF 498 CNS = test system: XF 498 CNS
HS 578T breast = test system: HS 578T breast
SK-OV-3 ovarian = test system: SK-OV-3 ovarian

## O=C1CCC(c2ccc(Cl)cc2)=NN1c1nsc2ccccc12
U251 CNS
  TGI: > 100 µM

## N#CC(NC12CC3CC(CC(C3)C1)C2)c1ccccc1C(F)(F)F (stereo unspecified)
LOX IMVI melanoma
  TGI: > 100 µM
MALME-3M melanoma
  TGI: > 100 µM
XF 498 CNS
  TGI: > 100 µM

## O=C1C=CC[C@H]2O[C@@H](COC(=O)Cc3ccccc3)C[C@H]2O1
HS 578T breast
  TGI: 59.4 µM
SK-OV-3 ovarian
  TGI: > 100 µM
